Source: the NIST ThermoML archive (doi:10.1021/je200811n)
± gives the expanded uncertainty stated by the source.

Details: Hot wire method

F/C=C/C(F)(F)F [trans-1,3,3,3-tetrafluoropropene]
Details	thermal conductivity [W/m/K]
241.66 K, 603 kPa, Liquid	0.09528 ± 0.001
241.9 K, 10355 kPa, Liquid	0.09967 ± 0.0011
241.91 K, 15386 kPa, Liquid	0.1016 ± 0.0011
241.91 K, 20710 kPa, Liquid	0.1039 ± 0.0011
241.94 K, 5328 kPa, Liquid	0.0974 ± 0.0011
242 K, 586 kPa, Liquid	0.09528 ± 0.001
242.02 K, 10375 kPa, Liquid	0.09936 ± 0.0011
242.03 K, 15367 kPa, Liquid	0.1014 ± 0.0011
242.03 K, 20714 kPa, Liquid	0.1037 ± 0.0011
242.06 K, 5339 kPa, Liquid	0.097 ± 0.0011
242.11 K, 624 kPa, Liquid	0.09501 ± 0.001
242.35 K, 15378 kPa, Liquid	0.1015 ± 0.0011
242.36 K, 10375 kPa, Liquid	0.09945 ± 0.0011
242.36 K, 20709 kPa, Liquid	0.1035 ± 0.0011
242.41 K, 5308 kPa, Liquid	0.09704 ± 0.0011
242.47 K, 619 kPa, Liquid	0.095 ± 0.001
242.5 K, 10391 kPa, Liquid	0.09913 ± 0.0011
242.5 K, 15372 kPa, Liquid	0.1012 ± 0.0011
242.5 K, 20712 kPa, Liquid	0.1034 ± 0.0011
242.56 K, 5308 kPa, Liquid	0.09697 ± 0.0011
242.62 K, 642 kPa, Liquid	0.09474 ± 0.001
242.85 K, 10385 kPa, Liquid	0.09922 ± 0.0011
242.85 K, 20701 kPa, Liquid	0.1032 ± 0.0011
242.86 K, 15376 kPa, Liquid	0.1011 ± 0.0011
242.92 K, 5304 kPa, Liquid	0.09701 ± 0.0011
243 K, 622 kPa, Liquid	0.09406 ± 0.001
243.02 K, 15383 kPa, Liquid	0.1009 ± 0.0011
243.02 K, 20695 kPa, Liquid	0.1029 ± 0.0011
243.04 K, 10395 kPa, Liquid	0.09886 ± 0.0011
243.1 K, 5316 kPa, Liquid	0.09673 ± 0.0011
243.17 K, 615 kPa, Liquid	0.09437 ± 0.001
243.39 K, 20699 kPa, Liquid	0.1032 ± 0.0011
243.4 K, 15385 kPa, Liquid	0.1011 ± 0.0011
243.42 K, 10393 kPa, Liquid	0.09892 ± 0.0011
243.49 K, 5327 kPa, Liquid	0.09667 ± 0.0011
243.57 K, 643 kPa, Liquid	0.09442 ± 0.001
243.59 K, 20693 kPa, Liquid	0.1027 ± 0.0011
243.6 K, 15397 kPa, Liquid	0.1006 ± 0.0011
243.63 K, 10402 kPa, Liquid	0.09852 ± 0.0011
243.71 K, 5317 kPa, Liquid	0.09606 ± 0.001
243.79 K, 649 kPa, Liquid	0.09402 ± 0.001
251.51 K, 42 kPa, Gas	0.01026 ± 0.00036
251.52 K, 63 kPa, Gas	0.01037 ± 0.00036
251.54 K, 86 kPa, Gas	0.01039 ± 0.00036
251.74 K, 41 kPa, Gas	0.01015 ± 0.00035
251.76 K, 63 kPa, Gas	0.01019 ± 0.00035
251.77 K, 86 kPa, Gas	0.01024 ± 0.00036
251.78 K, 87 kPa, Gas	0.01029 ± 0.00036
251.97 K, 87 kPa, Gas	0.01006 ± 0.00035
252 K, 41 kPa, Gas	0.01005 ± 0.00035
252 K, 62 kPa, Gas	0.01009 ± 0.00035
252 K, 88 kPa, Gas	0.01003 ± 0.00035
252.01 K, 86 kPa, Gas	0.01018 ± 0.00035
252.02 K, 63 kPa, Gas	0.01 ± 0.00035
252.03 K, 87 kPa, Gas	0.01018 ± 0.00035
252.31 K, 87 kPa, Gas	0.01004 ± 0.00035
252.33 K, 88 kPa, Gas	0.01011 ± 0.00035
252.36 K, 63 kPa, Gas	0.01014 ± 0.00035
252.65 K, 86 kPa, Gas	0.01016 ± 0.00035
252.67 K, 87 kPa, Gas	0.01008 ± 0.00035
252.73 K, 63 kPa, Gas	0.01019 ± 0.00035
253.03 K, 86 kPa, Gas	0.01015 ± 0.00035
253.07 K, 87 kPa, Gas	0.01011 ± 0.00035
253.13 K, 63 kPa, Gas	0.01017 ± 0.00035
253.46 K, 86 kPa, Gas	0.01017 ± 0.00035
253.48 K, 87 kPa, Gas	0.01016 ± 0.00035
253.56 K, 62 kPa, Gas	0.01022 ± 0.00036
261.25 K, 97 kPa, Gas	0.0104 ± 0.0004
261.43 K, 21238 kPa, Liquid	0.09804 ± 0.0011
261.44 K, 15456 kPa, Liquid	0.09523 ± 0.001
261.45 K, 97 kPa, Gas	0.01036 ± 0.00036
261.47 K, 10413 kPa, Liquid	0.09305 ± 0.001
261.48 K, 489 kPa, Liquid	0.08806 ± 0.00097
261.5 K, 80 kPa, Gas	0.01109 ± 0.00038
261.5 K, 5306 kPa, Liquid	0.09055 ± 0.00099
261.51 K, 21243 kPa, Liquid	0.09768 ± 0.0011
261.52 K, 15449 kPa, Liquid	0.09503 ± 0.001
261.55 K, 97 kPa, Gas	0.01112 ± 0.00038
261.55 K, 10410 kPa, Liquid	0.09274 ± 0.001
261.56 K, 107 kPa, Gas	0.0112 ± 0.0004
261.56 K, 489 kPa, Liquid	0.0878 ± 0.00096
261.57 K, 122 kPa, Gas	0.01124 ± 0.00039
261.58 K, 5302 kPa, Liquid	0.09026 ± 0.00099
261.64 K, 98 kPa, Gas	0.01034 ± 0.00036
261.73 K, 80 kPa, Gas	0.01096 ± 0.00038
261.77 K, 97 kPa, Gas	0.01098 ± 0.00038
261.78 K, 105 kPa, Gas	0.01104 ± 0.00038
261.79 K, 120 kPa, Gas	0.01105 ± 0.00038
261.83 K, 21233 kPa, Liquid	0.09783 ± 0.0011
261.85 K, 15453 kPa, Liquid	0.09507 ± 0.001
261.86 K, 98 kPa, Gas	0.01037 ± 0.00036
261.88 K, 10404 kPa, Liquid	0.09272 ± 0.001
261.91 K, 489 kPa, Liquid	0.08776 ± 0.00096
261.93 K, 5298 kPa, Liquid	0.09023 ± 0.00099
261.93 K, 21227 kPa, Liquid	0.09748 ± 0.0011
261.96 K, 80 kPa, Gas	0.01086 ± 0.00038
261.96 K, 128 kPa, Gas	0.01078 ± 0.00037
261.96 K, 15453 kPa, Liquid	0.09468 ± 0.001
261.97 K, 82 kPa, Gas	0.01083 ± 0.00037
261.97 K, 112 kPa, Gas	0.01074 ± 0.00037
261.98 K, 99 kPa, Gas	0.01077 ± 0.00037
262 K, 98 kPa, Gas	0.01084 ± 0.00037
262 K, 10412 kPa, Liquid	0.0925 ± 0.001
262.01 K, 97 kPa, Gas	0.0109 ± 0.0004
262.02 K, 103 kPa, Gas	0.01092 ± 0.00038
262.03 K, 118 kPa, Gas	0.01094 ± 0.00038
262.03 K, 488 kPa, Liquid	0.08756 ± 0.00096
262.04 K, 5301 kPa, Liquid	0.08998 ± 0.00098
262.09 K, 98 kPa, Gas	0.01037 ± 0.00036
262.29 K, 109 kPa, Gas	0.01076 ± 0.00037
262.29 K, 21229 kPa, Liquid	0.09748 ± 0.0011
262.3 K, 81 kPa, Gas	0.01082 ± 0.00037
262.3 K, 98 kPa, Gas	0.01082 ± 0.00037

Liquid
Details	thermal conductivity [W/m/K]
243.15 K	0.09448 ± 0.00058
253.15 K	0.09063 ± 0.00056
